{"source": "patent US9023878B2", "about": "(Neurophyxia B.V., priority 2010, dated 2015)", "key": {"[1]": {"test": "Solubility of 2-IB in 10% SBE-CD at different pH adjusted with 0.1 M citric acid (HPLC)", "type": "physicochemical", "experimental": "The experimental steps are shown as below.\n1. Weigh 0.5 g of SBE-CD into 10 ml glass vial\n2. Add 3 ml WFI into each vial to dissolve SBE-CD\n4. Magnetic stirring for 1 h\n5. Adjust pH to target pH with 0.1 M citric acid\n6. Determine the weight of 0.1 M citric acid added\n7. Add WFI to total weight of 5 g\n8. Measure pH again after 1 hour stirring\n9. Filtrate through the formulation through PVDF 0.22 um filter"}, "[2]": {"excerpt": "Necropsy took place approximately one hour after the second injection. Blood and brain samples were collected for both the mother and fetuses."}, "[3]": {"test": "Novel excipients (Cremophor EL, Solutol HS 15): 2-IB content of formulations at t=0 and after 48 hours", "settings": "for Concentration t = 0 / Concentration t = 48 h: Solutol HS 15 formulation", "protocol": "Finally two novel excipients were tested, Cremophor EL and Solutol HS 15.\nA range of 2-IB formulations were prepared that were stored for 48 hours and measured for 2-IB content:"}, "[4]": {"test": "Visual inspection after 12 hours storage at 5° C.", "type": "physicochemical"}, "[5]": {"test": "Solubility/encapsulation in cyclodextrin solutions (excess 2-IB, three days, filtered, RP-HPLC)", "protocol": "An excess of 2-IB was added to the cyclodextrin solutions, mixed at room temperature for three days and then filtered to remove non-encapsulated) non-solubilised 2-IB."}, "[6]": {"settings": "average of 4 litters, maternal dose 55 mg/kg sc, 55 mg/kg"}, "[7]": {"settings": "average of 4 maternal rats, 55 mg/kg sc, 55 mg/kg"}, "[8]": {"settings": "pooled female fetuses per maternal rat, maternal dose 55 mg/kg sc, 55 mg/kg"}, "[9]": {"settings": "pooled male fetuses per maternal rat, maternal dose 55 mg/kg sc, 55 mg/kg"}, "[10]": {"settings": "nominal 5.0 mg/ml, pH 2.4, after filtration"}, "[11]": {"settings": "nominal 5.0 mg/ml, pH 2.8, after filtration"}, "[12]": {"settings": "nominal 5.0 mg/ml, pH 3.0, after filtration"}, "[13]": {"settings": "nominal 5.0 mg/ml, pH 3.5, after filtration"}, "[14]": {"settings": "nominal 5.0 mg/ml, pH 3.6, after filtration"}, "[15]": {"settings": "nominal 5.0 mg/ml, pH 3.8, after filtration"}, "[16]": {"settings": "nominal 5.0 mg/ml, pH 10.2, after filtration"}, "[17]": {"settings": "nominal 10 mg/ml, pH 3.0, after filtration"}, "[18]": {"settings": "nominal 10 mg/ml, pH 3.5, after filtration"}, "[19]": {"settings": "nominal 20 mg/ml, pH 3.0, after filtration"}, "[20]": {"settings": "nominal 20 mg/ml, pH 3.5, after filtration"}}, "note": "Where “and” joins values, the source holds several entries; their conditions need not be identical. Identical values can stand only once. Marks after values point to notes of the source that are not given here."}
{"smiles": "N=C1N[C@H]2[C@H](CS[C@H]2CCCCC(=O)O)N1", "note": "[Formulation 2-IB, 2-iminobiotin]", "values": [{"measurement": "Solubility of 2-IB", "setting": "[1]; pH 4.0", "value": 13.08, "unit": "mg/g"}, {"measurement": "Solubility of 2-IB", "setting": "[1]; pH 4.5", "value": 9.00, "unit": "mg/g"}, {"measurement": "Solubility of 2-IB", "setting": "[1]; pH 5.0", "value": "5.2 mg/g and 5.21 mg/g"}, {"measurement": "Solubility of 2-IB", "setting": "[1]; pH 5.1", "value": 5.30, "unit": "mg/g"}, {"measurement": "Solubility of 2-IB", "setting": "[1]; pH 5.5", "value": 3.29, "unit": "mg/g"}, {"measurement": "Solubility of 2-IB", "setting": "[1]; pH 6.2", "value": 1.94, "unit": "mg/g"}, {"measurement": "Solubility of 2-IB", "setting": "[1]; pH 7.0", "value": 1.71, "unit": "mg/g"}, {"measurement": "mortality of maternal animals", "setting": "[2]; 55 mg/kg sc, Day 20 post-coitum", "value": "No mortality occurred"}, {"measurement": "2-IB concentration in brain, female fetuses, average (±SD)", "setting": "[2]; [6]", "value": "369 ng/g and 369 (±72) ng/g"}, {"measurement": "2-IB concentration in brain, male fetuses, average (±SD)", "setting": "[2]; [6]", "value": "329 ng/g and 329 (±72) ng/g"}, {"measurement": "2-IB plasma concentration, female fetuses, average (±SD)", "setting": "[2]; [6]", "value": "1,903 ng/mL and 1,903 (±437) ng/mL"}, {"measurement": "2-IB plasma concentration, male fetuses, average (±SD)", "setting": "[2]; [6]", "value": "1,765 ng/mL and 1,765 (±259) ng/mL"}, {"measurement": "2-IB concentration in brain, maternal, average (±SD)", "setting": "[2]; [7]", "value": "268 ng/g and 268 (±92) ng/g"}, {"measurement": "2-IB plasma concentration, maternal, average (±SD)", "setting": "[2]; [7]", "value": "10,039 ng/mL and 10,039 (±3371) ng/mL"}, {"measurement": "2-IB concentration in brain sample, maternal", "setting": "[2]; individual maternal Wistar rats, 55 mg/kg sc, 55 mg/kg", "value": "151 ng/g and 375 ng/g and 270 ng/g and 276 ng/g"}, {"measurement": "2-IB plasma concentration, maternal", "setting": "[2]; individual maternal Wistar rats, Day 20 post-coitum, 2 sc injections of 27.5 mg/kg, approximately one hour after second injection, 27.5 mg/kg", "value": "7,104 ng/mL and 14,185 ng/mL and 7,490 ng/mL and 11,378 ng/mL"}, {"measurement": "2-IB concentration in brain sample, pooled fetuses (females)", "setting": "[2]; [8]", "value": "474 (n = 3) ng/g and 317 (n = 8) ng/g and 329 (n = 4) ng/g and 356 (n = 7) ng/g"}, {"measurement": "2-IB plasma concentration, pooled fetuses (females)", "setting": "[2]; [8]", "value": "2,442* (n = 3) ng/mL and 2,063 (n = 8) ng/mL and 1,474 (n = 4) ng/mL and 1,634 (n = 7) ng/mL"}, {"measurement": "2-IB concentration in brain sample, pooled fetuses (males)", "setting": "[2]; [9]", "value": "287 (n = 8) ng/g and 435 (n = 4) ng/g and 283 (n = 5) ng/g and 309 (n = 8) ng/g"}, {"measurement": "2-IB plasma concentration, pooled fetuses (males)", "setting": "[2]; [9]", "value": "1,868 (n = 8) ng/mL and 2,080 (n = 4) ng/mL and 1,598 (n = 5) ng/mL and 1,512 (n = 8) ng/mL"}, {"measurement": "transfer over the placenta and the blood-brain barrier", "setting": "[2]; two sc injections, total dose level 55 mg/kg", "value": "confirmed"}, {"measurement": "Solutol HS 15 concentration giving optimal solubility", "setting": "[3]; 5-10-15-20-25% Solutol HS 15 tested at approximately 5 mg/ml", "value": 20, "unit": "%"}, {"measurement": "pH at which the formulation could be prepared", "setting": "[3]; 20% Solutol HS 15 and 5% Dextrose in water", "value": "3.5-3.6"}, {"measurement": "Concentration t = 0", "setting": "[3]; [10]", "value": 5.65, "unit": "mg/mL"}, {"measurement": "Concentration t = 48 h", "setting": "[3]; [10]", "value": 4.78, "unit": "mg/mL"}, {"measurement": "Concentration t = 0", "setting": "[3]; [11]", "value": 5.43, "unit": "mg/mL"}, {"measurement": "Concentration t = 48 h", "setting": "[3]; [11]", "value": 5.45, "unit": "mg/mL"}, {"measurement": "Concentration t = 0", "setting": "[3]; [12]", "value": 4.64, "unit": "mg/mL"}, {"measurement": "Concentration t = 48 h", "setting": "[3]; [12]", "value": 4.87, "unit": "mg/mL"}, {"measurement": "Concentration t = 0", "setting": "[3]; [13]", "value": 5.21, "unit": "mg/mL"}, {"measurement": "Concentration t = 48 h", "setting": "[3]; [13]", "value": 4.94, "unit": "mg/mL"}, {"measurement": "Concentration t = 0", "setting": "[3]; [14]", "value": 4.52, "unit": "mg/mL"}, {"measurement": "Concentration t = 48 h", "setting": "[3]; [14]", "value": 3.93, "unit": "mg/mL"}, {"measurement": "Concentration t = 0", "setting": "[3]; [15]", "value": 5.10, "unit": "mg/mL"}, {"measurement": "Concentration t = 48 h", "setting": "[3]; [15]", "value": 2.62, "unit": "mg/mL"}, {"measurement": "Concentration t = 0", "setting": "[3]; [16]", "value": 5.71, "unit": "mg/mL"}, {"measurement": "Concentration t = 48 h", "setting": "[3]; [16]", "value": 0, "unit": "mg/mL"}, {"measurement": "Concentration t = 0", "setting": "[3]; [17]", "value": 9.06, "unit": "mg/mL"}, {"measurement": "Concentration t = 48 h", "setting": "[3]; [17]", "value": 8.64, "unit": "mg/mL"}, {"measurement": "Concentration t = 0", "setting": "[3]; [18]", "value": 8.30, "unit": "mg/mL"}, {"measurement": "Concentration t = 48 h", "setting": "[3]; [18]", "value": 8.04, "unit": "mg/mL"}, {"measurement": "Concentration t = 0", "setting": "[3]; [19]", "value": 16.6, "unit": "mg/mL"}, {"measurement": "Concentration t = 48 h", "setting": "[3]; [19]", "value": 16.7, "unit": "mg/mL"}, {"measurement": "Concentration t = 0", "setting": "[3]; [20]", "value": 14.7, "unit": "mg/mL"}, {"measurement": "Concentration t = 48 h", "setting": "[3]; [20]", "value": 13.2, "unit": "mg/mL"}, {"measurement": "Appearance after 12 hours at 5° C.", "setting": "[4]; saturated in 50 mM Citrate pH 3.0", "value": "Precipitated"}, {"measurement": "Appearance after 12 hours at 5° C.", "setting": "[4]; saturated in 50 mM Citrate pH 3.5", "value": "Precipitated"}, {"measurement": "Appearance after 12 hours at 5° C.", "setting": "[4]; saturated in 50 mM Citrate pH 4.0", "value": "Precipitated"}, {"measurement": "Appearance after 12 hours at 5° C.", "setting": "[4]; saturated in 50 mM Citrate pH 4.5", "value": "Precipitated"}, {"measurement": "Appearance after 12 hours at 5° C.", "setting": "[4]; saturated in 50 mM Citrate pH 5.0", "value": "Precipitated"}, {"measurement": "concentration of 2-IB", "setting": "[5]; 0% cyclodextrin, Citrate pH 4.0, final pH 4.0", "value": 1.7, "unit": "mg/mL"}, {"measurement": "concentration of 2-IB", "setting": "[5]; 0% cyclodextrin, Citrate pH 5.0, final pH 5.0", "value": 0.6, "unit": "mg/mL"}, {"measurement": "concentration of 2-IB", "setting": "[5]; 0% cyclodextrin, WFI, final pH 6.5", "value": 0.4, "unit": "mg/mL"}, {"measurement": "concentration of 2-IB", "setting": "[5]; 2.5% HP-CD, Citrate pH 4.0, final pH 4.2", "value": 2.5, "unit": "mg/mL"}, {"measurement": "concentration of 2-IB", "setting": "[5]; 2.5% HP-CD, Citrate pH 5.0, final pH 5.1", "value": 0.9, "unit": "mg/mL"}, {"measurement": "concentration of 2-IB", "setting": "[5]; 2.5% HP-CD, WFI, final pH 6.5", "value": 0.5, "unit": "mg/mL"}, {"measurement": "concentration of 2-IB", "setting": "[5]; 2.5% SBE-CD, Citrate pH 4.0, final pH 4.3", "value": 3.7, "unit": "mg/mL"}, {"measurement": "concentration of 2-IB", "setting": "[5]; 2.5% SBE-CD, Citrate pH 5.0, final pH 5.0", "value": 1.9, "unit": "mg/mL"}, {"measurement": "concentration of 2-IB", "setting": "[5]; 2.5% SBE-CD, WFI, final pH 6.3", "value": 0.7, "unit": "mg/mL"}]}
